This is an account of results in patent publication US10167283B2, “β-lactamase inhibitors and uses thereof” (priority 2015, dated 2019).

Counter-ions that a name gives are not always drawn. Like-named read-outs stand apart in the source and are kept apart here.

One data set concerns the target T1, AmpC (UniProt P05364).
T1 construct: The concentration of purchased β-lactamases mother liquor was 1 mg/mL, and the mother liquor was dissolved in 50% glycerol
Briefly: β-lactamase inhibition, Nitrocefin hydrolysis. The data set is classed as biochemical. Conditions: read-out: IC50 Type C AmpC; Experiment 1; enzyme 0.4 nM, Nitrocefin 0.1 mM. The procedure:
(§1) Nitrocefin, a kind of cephalosporin antibiotics, is sensitive to most of β-lactamases, and changes in color after being hydrolyzed. The hydrolysis rate of Nitrocefin was measured by real-time recording corresponding absorbance of reaction system. β-Lactamase inhibitors could inhibit hydrolysis of the enzymes to Nitrocefin, and reduce hydrolysis rate. By measuring reaction rates in the same reaction system under different inhibitor concentrations, the IC50 (half maximal inhibitory concentration) values of inhibitors were calculated.
(§2) Nitrocefin was dissolved in DMSO to form a solution with concentration of 2 mM, which was sub-packaged and stored at −20° C. The concentration of purchased β-lactamases mother liquor was 1 mg/mL, and the mother liquor was dissolved in 50% glycerol. A part of mother liquor was taken and diluted by 1000 times in reaction solution, sub-packaged and stored at ˜20° C.
(§3) The compounds to be tested were dissolved in DMSO to form a mother liquor with concentration of 10 mM. If not used that day, the mother liquor was stored at −20° C. Its test final concentrations were: 100 μM, 25 μM, 6.25 μM, 1.563 μM, 390.6 nM, 97.66 nM, 24.41 nM, 6.10 nM, 1.53 nM, 0.381 nM, 0.095 nM.

In another data set the target is T2, KPC-2 (Klebsiella pneumoniae, UniProt Q9F663).
T2 construct: purchased
Briefly: β-lactamase inhibition, Nitrocefin hydrolysis. The data set is classed as biochemical. The procedure:
as §1, §2, §3

The target in the next data set is T3, TEM-1 (Escherichia coli, UniProt P62593).
T3 construct: purchased
The data set can be described thus: β-lactamase inhibition, Nitrocefin hydrolysis. The format is biochemical. Conditions: Experiment 1; enzyme 0.25 nM, Nitrocefin 0.1 mM; read-out: IC50 ESBLs type TEM-1. The procedure: as §1, §2, §3

Data set [1] has as its system Klebsiella pneumoniae BAA-1900 (KPC). The data set can be described thus: In vitro antibacterial activity, agar dilution MIC. The data set is classed as cell-based. The text has this:
(§4) Experimental strains: all experimental standard bacterial strains for enzyme production were purchased from ATCC, and the clinically separated CRE strain was purchased from Southwest Hospital of the Third Military Medical University.
(§5) Experimental Method: Agar dilution method, referring to M100-S23: Performance Standards for Antimicrobial Susceptibility Testing: Twenty-Third Informational Supplement (Clinical And Laboratory Standards Institute, 2013). Minimal inhibitory concentration (MIC, μg/mL) was calculated.

In data set [2] the test system is Klebsiella oxytoca ATCC-51983 (SHV-5). Briefly: In vitro antibacterial activity, agar dilution MIC. The format is cell-based. As to conditions: Klebsiella oxytoca, ATCC51983.
From the text: as §4, §5
(In agar dilution the substance is mixed into plates at graded concentrations.)

Data set [3] deals with Escherichia coli BAA-2523 (OXA-48). Briefly: In vitro antibacterial activity, agar dilution MIC. The format is cell-based.
From the text: as §4, §5

Data set [4] deals with Escherichia coli BAA-196 (TEM-10). The data set can be described thus: In vitro antibacterial activity, agar dilution MIC. The format is cell-based.
From the text: as §4, §5

Data set [5] concerns Enterobacter hormaechei BAA-2082 (KPC). The data set can be described thus: In vitro antibacterial activity, agar dilution MIC. The format is cell-based. As to conditions: Enterobacter hormaechei, BAA2082.
From the text: as §4, §5

Data set [6] has as its system Klebsiella pneumoniae BAA-2146 (NDM-1). The data set can be described thus: In vitro antibacterial activity, agar dilution MIC. The data set is classed as cell-based.
From the text: as §4, §5

For data set [7], the system named is Escherichia coli BAA-2452 (NDM-1). The data set can be described thus: In vitro antibacterial activity, agar dilution MIC. The data set is classed as cell-based.
From the text: as §4, §5

Data set [8] deals with Enterobacter cloacae BAA-2341 (KPC). The data set can be described thus: In vitro antibacterial activity, agar dilution MIC. The format is cell-based. Conditions: Enterobacter cloacae, BAA2341.
From the text: as §4, §5

Data set [9] relates to Klebsiella pneumoniae BAA-2524 (OXA-48). The data set can be described thus: In vitro antibacterial activity, agar dilution MIC. The data set is classed as cell-based. Conditions: Klebsiella pneumoniae, BAA2524.
From the text: as §4, §5

Data set [10] in a line: Pharmacokinetics in SD rats (iv). The data set is classed as in vivo, SD rat. As to conditions: male, plasma; for half-life / clearance: SD, rat, iv, 1 mg/kg; for clearance: read-out: Cl—obs (converted); for Vd / AUC(0-t): SD rat, iv 1 mg/kg; for Vd: apparent volume of distribution, read-out: Vss—obs; for AUC(0-t): area under the curve 0→t. The procedure: Experimental Example 1: Pharmacokinetics Experiments of the Compound of the Present Invention in Rats Test animals: 3 male SD rats, bodyweight 200-250 g for each animal. Test samples were administrated via intravenous push (iv), dosage of administration was 1 mg/kg, volume of administration was 2 mL/kg. Collecting time points: iv: after administration 0.083 […]. At each time point, about 100 μL of whole blood was sampled via caudal vein, added to K2EDTA anti-coagulative tube, centrifuged in a refrigerated centrifuge under 8000 rpm for 6 min to separate plasma, and the plasma was stored in -80° C. refrigerator. Plasma (20 μL) was taken and placed in a 96-well deep-well plate, and internal standard solution (300 μL) was added, subjected to vortex for 5 min, then centrifuged under 12000 rpm for 5 min, and then supernatant (200 μL) was taken and subjected to vortex for 3 min; to be analyzed by LC-MS/MS. Plasma (30 μL) was taken and placed in 1.5 mL EP tube, and internal standard solution (300 μL) was added, subjected to vortex for 5 min, then centrifuged under 12000 rpm for 5 min, and then supernatant (200 μL) was taken and subjected to vortex for 3 min; to be analyzed by LC-MS/MS. Plasma (30 μL) was taken and placed in a 96-well deep-well plate, and internal standard solution (200 μL) was added, subjected to vortex for 5 min, then centrifuged under 4000 rpm for 20 min, and then supernatant (100 μL) was taken and water (100 μL) was added, and subjected to vortex homogeneously; to be analyzed by LC-MS/MS.

Data set [11] has as its system Klebsiella pneumoniae 7463kpn-610 (ESBLs). Briefly: In vitro antibacterial activity on clinically separated CRE strain, agar dilution MIC. The data set is classed as cell-based. Conditions: first Table 4, 7463kpn-610 Klebsiella pneumoniae.
From the text: as §4, §5

Data set [12] deals with Klebsiella pneumoniae 7484kpn-631 (IMP, ESBLs). The data set is described as above. The data set is classed as cell-based. As to conditions: first Table 4, 7484kpn-631 Klebsiella pneumoniae.
From the text: as §4, §5

Data set [13] concerns Enterobacter cloacae 7513ecl-314 (AmpC). The data set is described as above. The data set is classed as cell-based. As to conditions: first Table 4, 7513ecl-314 Enterobacter cloacae.
From the text: as §4, §5

Another data set deals with T4, OXA-10 (Pseudomonas aeruginosa, UniProt P14489).
T4 construct: purchased
Briefly: β-lactamase inhibition, Nitrocefin hydrolysis. The data set is classed as biochemical. As to conditions: Experiment 3; enzyme 10 nM, Nitrocefin 0.1 mM; read-out: IC50 Type D OXA-10. The procedure:
as §1, §2, §3

[14] abbreviates: Experiment 1, Nitrocefin 0.1 mM, read-out: IC50 Type A KPC-2.
[15] abbreviates: BAA1900, first Table 4, BAA-1900 Klebsiella pneumoniae, KPC, read-out: MIC.
Setting [16] is: BAA2523, first Table 4, BAA-2523 Escherichia coli, OXA-48, read-out: MIC.
Where [17] appears, read: BAA196, first Table 4, BAA-196 Escherichia coli, TEM-10, read-out: MIC.
Setting [18] is: BAA2146, first Table 4, BAA-2146 Klebsiella pneumoniae, NDM-1, read-out: MIC.
Setting [19] is: BAA2452, first Table 4, BAA-2452 Escherichia coli, NDM-1, read-out: MIC.

T2 sequence (Q9F663 25-293, looked up, species assumed): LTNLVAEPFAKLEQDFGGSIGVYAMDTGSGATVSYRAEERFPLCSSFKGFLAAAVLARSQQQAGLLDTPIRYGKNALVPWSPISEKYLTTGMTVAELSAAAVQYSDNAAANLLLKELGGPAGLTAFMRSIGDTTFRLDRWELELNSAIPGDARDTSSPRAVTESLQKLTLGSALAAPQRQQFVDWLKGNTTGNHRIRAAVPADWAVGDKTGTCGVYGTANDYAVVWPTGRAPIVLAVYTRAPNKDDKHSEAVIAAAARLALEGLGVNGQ
T3 sequence (P62593 24-286 limits assumed): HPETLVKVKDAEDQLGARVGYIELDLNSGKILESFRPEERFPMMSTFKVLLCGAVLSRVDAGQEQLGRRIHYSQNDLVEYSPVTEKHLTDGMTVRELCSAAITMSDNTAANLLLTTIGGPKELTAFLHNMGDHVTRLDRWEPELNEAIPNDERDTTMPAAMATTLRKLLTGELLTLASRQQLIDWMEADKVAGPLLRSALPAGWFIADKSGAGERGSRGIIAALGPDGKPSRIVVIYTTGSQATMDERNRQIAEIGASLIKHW
T4 sequence (P14489 20-266, species assumed): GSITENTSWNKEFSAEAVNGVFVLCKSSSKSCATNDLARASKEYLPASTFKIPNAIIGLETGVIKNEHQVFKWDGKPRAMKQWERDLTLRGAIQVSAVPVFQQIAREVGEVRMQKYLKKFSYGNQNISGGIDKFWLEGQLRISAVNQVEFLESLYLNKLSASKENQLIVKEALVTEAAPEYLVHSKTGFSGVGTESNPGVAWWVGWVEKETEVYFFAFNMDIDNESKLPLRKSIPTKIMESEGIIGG

With `O=C(NC1C2CCC1CNC2)[C@@H]1CC[C@@H]2CN1C(=O)N2OS(=O)(=O)O` (stereo partly drawn) [Compound 5, (2S,5R)-2-((3-azabicyclo[3.2.1]octan-8-yl)carbamoyl)-7-oxo-1,6-diazabicyclo[3.2.1]octan-6-yl hydrogen sulfate], the IC50 (as a rule, the point on the concentration scale where inhibition reaches its midpoint) amounted to 84.1 nM on AmpC, 27.4 nM at KPC-2 (setting [14]) and 66.5 nM on TEM-1.

As for `O=C(NC1CC2(C1)CN(CC1CC1)C2)[C@@H]1CC[C@@H]2CN1C(=O)N2OS(=O)(=O)O` [Compound 14, sodium (2S,5R)-2-((2-(cyclopropylmethyl)-2-azaspiro[3.3]heptan-6-yl)carbamoyl)-7-oxo-1,6-diazabicyclo[3.2.1]octan-6-yl sulfate], the MIC (as a rule, the least concentration at which growth counts as inhibited) was found to be 4 µg/mL in data set [1] (BAA1900); 8 µg/mL in data set [2]; 2 µg/mL in data set [3] (BAA2523); 8 µg/mL in data set [4] (BAA196); 8 µg/mL in data set [5]; 8 µg/mL in [6] (BAA2146). Also, the MIC was found to be 2 µg/mL in [7] (BAA2452), 8 µg/mL in data set [8] and 4 µg/mL in [9].

`CCN1CC2(CC(NC(=O)[C@@H]3CC[C@@H]4CN3C(=O)N4OS(=O)(=O)O)C2)C1` [Comp. 7 sodium salt, sodium (2S,5R)-2-((2-ethyl-2-azaspiro[3.3]heptan-6-yl)carbamoyl)-7-oxo-1,6-diazabicyclo[3.2.1]octan-6-yl sulfate]: the MIC in data set [1] (BAA1900) is 8 µg/mL; in [3] (BAA2523), 4 µg/mL; in data set [4] (BAA196), 8 µg/mL; in [5], 8 µg/mL; in [7] (BAA2452), 4 µg/mL; in data set [8], 8 µg/mL. Moreover, in [9], the minimal inhibitory concentration (MIC) was found to be 8 µg/mL.

For the molecule `O=C(NC1CC2(CCNCC2)C1)[C@@H]1CC[C@@H]2CN1C(=O)N2OS(=O)(=O)O` [Compound 1, (2S,5R)-2-(7-azaspiro[3.5]nonan-2-ylcarbamoyl)-7-oxo-1,6-diazabicyclo[3.2.1]octan-6-yl hydrogen sulfate], in data set [10], the half-life (as a rule, the time needed for the level to fall by half in the phase considered) is 60.6 min; the clearance is 7.77 mL/min/kg; the Vd is 0.294 L/kg; the AUC(0-t) (as a rule, exposure summed from dosing to a finite time, without extrapolation to infinity) was found to be 2330 ng·h/mL. Further, the IC50 on AmpC was found to be 22.9 nM. For the same molecule, on KPC-2 (setting [14]), the IC50 turned out to be 81.7 nM. The IC50 at TEM-1 was 28.2 nM.

Consider `O=C(NC1CC2(CNC2)C1)[C@H]1CC[C@@H]2CN1C(=O)N2OS(=O)(=O)O` [Compound 2-2, (2R,5R)-2-((2-azaspiro[3.3]heptan-6-yl)carbamoyl)-7-oxo-1,6-diazabicyclo[3.2.1]octan-6-yl hydrogen sulfate], for which the MIC in data set [11] was 2 µg/mL; in data set [12], 2 µg/mL; in [13] it was 2 µg/mL; in data set [1] (setting [15]) it was 4 µg/mL; in data set [3] (setting [16]) it was 4 µg/mL; in [4] (setting [17]) it was 4 µg/mL. The MIC in data set [6] (setting [18]) was found to be 2 µg/mL; in [7] (setting [19]), 4 µg/mL.

As for `CN1CC2(CC(NC(=O)[C@@H]3CC[C@@H]4CN3C(=O)N4OS(=O)(=O)O)C2)C1` [Compound 6 sodium salt, sodium (2S,5R)-2-((2-methyl-2-azaspiro[3.3]heptan-6-yl)carbamoyl)-7-oxo-1,6-diazabicyclo[3.2.1]octan-6-yl sulfate], in data set [10], the half-life was 15 min, the clearance was 9.08 mL/min/kg, the Vd worked out at 0.219 L/kg and the AUC(0-t) amounted to 1840 ng·h/mL. In addition, at OXA-10, the IC50 was 21.7 µM.

Consider `O=C(NC1CC2CCC(C1)N2)[C@@H]1CC[C@@H]2CN1C(=O)N2OS(=O)(=O)O` (stereo partly drawn) [Compound 4, (2S,5R)-2-((8-azabicyclo[3.2.1]octane-3-yl)carbamoyl)-7-oxo-1,6-diazabicyclo[3.2.1]octan-6-yl hydrogen sulfate], for which, in [10], the half-life was 122 min, the clearance is 12.1 mL/min/kg, the Vd is 0.348 L/kg and the AUC(0-t) was found to be 1390 ng·h/mL. 23.1 nM corresponded to half-maximal inhibition against KPC-2 (IC50). Besides, the IC50 on TEM-1 worked out at 20.5 nM.

For `O=C(NC1CC2(C1)CN(C1CC1)C2)[C@@H]1CC[C@@H]2CN1C(=O)N2OS(=O)(=O)O` [Compound 13, (2S,5R)-2-(2-cyclopropyl-2-azaspiro[3.3]heptan-6-ylcarbamoyl)-7-oxo-1,6-diazabicyclo[3.2.1]octan-6-yl hydrogen sulfate], the MIC in data set [1] (BAA1900) came out at 8 µg/mL; in data set [2], 8 µg/mL; in data set [3] (BAA2523) it was 4 µg/mL; in data set [4] (BAA196) it was 16 µg/mL; in data set [5], 16 µg/mL; in data set [7] (BAA2452), 4 µg/mL. In addition, the MIC in data set [9] worked out at 4 µg/mL.

`CN1CC2(CC(NC(=O)[C@H]3CC[C@@H]4CN3C(=O)N4OS(=O)(=O)O)C2)C1` [Compound 6-2, (2R,5R)-2-((2-methyl-2-azaspiro[3,3]heptan-6-yl)carbamoyl)-7-oxo-1,6-diazabicyclo[3,2,1]octan-6-yl hydrogen sulfate]: the MIC in [11] came to 8 µg/mL; in data set [12], 4 µg/mL; in [13], 4 µg/mL; in data set [1] (setting [15]), 8 µg/mL; in data set [3] (setting [16]) it was 8 µg/mL; in [4] (setting [17]), 8 µg/mL. Besides, the values for the MIC in data set [6] (setting [18]) and in data set [7] (setting [19]) were 16 µg/mL and 8 µg/mL, respectively.
